Data on 8 compounds can be found in patent US5550110A, “Endothelin Antagonists II” (Warner-Lambert Company, priority 1994, dated 1996).

Peptide text beside a SMILES is read from it.

The target of assay [1] is T1, endothelin receptor (ETB), rat cerebellar membranes (Rattus norvegicus, UniProt P21451).
T1 construct: thaw one aliquot of frozen rat cerebellar membranes (2 mg protein in 0.5 mL); from tissue; host or cells: rat cerebellum (membranes)
T1 sequence (P21451 27-442): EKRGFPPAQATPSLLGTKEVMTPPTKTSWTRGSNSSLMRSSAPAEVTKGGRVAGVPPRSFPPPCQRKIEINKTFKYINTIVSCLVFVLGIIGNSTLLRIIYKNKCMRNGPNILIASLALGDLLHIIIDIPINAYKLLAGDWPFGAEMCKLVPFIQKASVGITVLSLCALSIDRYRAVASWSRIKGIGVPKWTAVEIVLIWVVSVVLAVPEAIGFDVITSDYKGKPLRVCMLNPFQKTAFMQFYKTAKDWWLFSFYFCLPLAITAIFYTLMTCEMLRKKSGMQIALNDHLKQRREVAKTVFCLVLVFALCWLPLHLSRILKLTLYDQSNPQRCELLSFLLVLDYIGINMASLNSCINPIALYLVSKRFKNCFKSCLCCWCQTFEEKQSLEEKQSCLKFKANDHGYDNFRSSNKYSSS
In words: Endothelin Receptor Binding Assay-B (ERBA-B), [125I]-ET-1 binding in rat cerebellar membranes. The note with it: [125I]-ET-1 25 pM, read-out: ERRA-B IC50. Here is the method:
Endothelin Receptor Binding Assay-B (ERBA-B) [^125 I]-ET-1 Binding in Rat Cerebellar Membranes
The tissue is made up of 20 mM tris(hydroxymethyl)aminomethane hydrochloride (Trizma) buffer, 2 mM ethylenediaminetetra acetate, 100 μM phenylmethylsulfonyl fluoride.
First, thaw one aliquot of frozen rat cerebellar membranes (2 mg protein in 0.5 mL). Next, add 0.5 mL membrane aliquot to 4.5 mL cold tissue buffer, polytron at 7,500 revolutions per minute for 10 seconds. Finally, dilute tissue suspension 1/100 (0.1 mL suspension+9.9 mL tissue buffer), polytron again, and place ice.
Medium 199 with Hank's salts plus 25 mM Hepes+1 mg/mL bovine serum albumin.
Amersham [^125 I]-ET-1 (aliquots of 2×10^6 cpm per […] aliquot of [^125 I]-ET-1 with 5.2 mL dilution buffer, place on ice until use (final concentration will be 20,000 cpm per tube, or 25 pM).
Add 50 μL each of cold [^125 ]-ET-1 and competing ligand to tubes on ice. Mix in 150 μL of tissue to each tube, vortex briefly, then tap to force all liquids to bottom (total assay volume=250 μL). Then place the tubes in a 37° C. water bath for 2 hours.
Add 2.5 mL cold wash buffer (50 mM Trizma buffer) to each tube, filter, and then wash tube with additional 2.5 mL wash buffer and add to filter. Finally, wash filters with an additional 2.5 mL of cold wash buffer.
Count filters for radioactivity in gamma counter.

The test system of assay [2] is endothelin receptor, cultured rabbit renal artery vascular smooth muscle cells. In words: Inhibition of ET-1 stimulated arachidonic acid release (AAR-A). Type of assay: cell-based. The note with it: ET-1 0.3 nM. Here is the method: (§1) In Vitro Inhibition of ET-1 Stimulated Arachidonic Acid Release in Cultured Rabbit Vascular Smooth Muscle Cells (AAR-A) or CHO Cells Expressing Rat Recombinant ETB Receptor (AAR-B) by Compounds of Formula I
(§2) Antagonist activity is measured by the ability of added compounds to reduce endothelin-stimulated arachidonic acid release in cultured vascular smooth muscle cells as arachidonic acid release (AAR). [^3 H] Arachidonic Acid Loading Media (LM) is DME/F12+0.5% fetal calf serum (FCS)×0.25 mCi/mL [^3 H] arachidonic acid (Amersham). Confluent monolayers of cultured rabbit renal artery vascular smooth muscle cells (AAR-A) or CHO cells expressing rat recombinant ETB receptor (AAR-B) were incubated in 0.5 mL of the LM over 18 hours, at 37° C., in 5% CO2. The LM was aspirated and the cells were washed once with the assay buffer (Hank's balanced salt solution [BSS]+10 mM HEPES+fatty acid-free BSA (1 mg/mL)), and incubated for 5 minutes with 1 mL of the prewarmed assay buffer. This solution was aspirated, followed by an additional 1 mL of prewarmed assay buffer, and further incubated for another 5 minutes. A final 5-minute incubation was carried out in a similar manner. The same procedure was repeated with the inclusion of 10 μL of the test compound (1 nM to 1 μM) and 10 μL ET-1 (0.3 nM) and the incubation was extended for 30 minutes. This solution was then collected, […] of scintillation cocktail was added, and the amount of [^3 H] arachidonic acid was determined in a liquid scintillation counter.

The test system of assay [3] is endothelin receptor (ETA), rabbit renal artery vascular smooth muscle cells. In words: Endothelin Receptor Binding Assay-A (ERBA-A), intact cell binding of [125I]-ET-1. The note with it: [125I]-ET-1 25 pM. Here is the method: The compounds of Formula I are valuable antagonists of endothelin. […] Thus, the compounds of Formula I were tested for their ability to inhibit [^125 I]-ET-1([^125 I]-Endothelin-1) binding in a receptor assay according to the following procedures: Endothelin Receptor Binding Assay-A (ERBA-A) Intact Cell Binding of [^125 I]-ET-1 The cells used were rabbit renal artery vascular smooth muscle cells grown in a 48-well dish (1 cm^2) (confluent cells). The assay buffer was a medium 199 containing Hanks salts and 25 mM Hepes buffer (Gibco 380-2350AJ), supplemented with penicillin/streptomycin/fungizone (0.5%) and bovine serum albumin (1 mg/mL). Amersham radioiodinated endothelin-1 [^125 I]-ET-1 was used at final concentration of 20,000 cpm/0.25 mL (25 pM). […] Second, remove the assay buffers, place the dish on ice, and add 150 μL of cold assay buffer described above to each well. Third, add […] each of cold [^125 I]-ET-1 and competing ligand to the solution (at the same time if possible). Next, place dish in a 37° C. water bath for about 2 hours and gently agitate the dish every 15 minutes. Discard the radioactive incubation mixture in the sink and wash wells 3 times with 1 mL of cold phosphate buffered saline. Last, add […] of 0.25 molar sodium hydroxide, agitate for 1 hour on a rotator, and then transfer the sodium hydroxide extract to gamma counting tubes and count the radioactivity.

In assay [4] the test system is ETA (rabbit femoral artery). The note with it: ET-1 as agonist, endothelium-denuded rings. The text has this:
(§3) In Vitro Antagonism of ET-1 Stimulated Vasoconstriction in the Rabbit Femoral Artery (ETA) and Sarafotoxin 6c Stimulated Vasoconstriction in the Rabbit Pulmonary Artery (ETB)
(§4) Male New Zealand rabbits were killed by cervical dislocation and exsanguination. Femoral and pulmonary arteries were isolated, cleaned of connective tissue, and cut into 4-mm rings. The endothelium was denuded by placing the rings over hypodermic tubing (32 guage for femoral rings and 28 guage for pulmonary rings, Small Parts, Inc, Miami, Fla.) and gently rolling them. Denuded rings were mounted in 20 mL organ baths containing Krebs-bicarbonate buffer (composition in mM: NaCl, 118.2; NaHCO3, 24.8; KCl, 4.6; MgSO4 7.H2 O, 1.2; KH2 PO4, 1.2; CaCl2.2H2 O; Ca--Na2 EDTA, 0.026; dextrose, 10.0), that was maintained at 37° C. and gassed continuously with 5% CO2 in oxygen (pH 7.4). Resting tension was adjusted to 3.0 g for femoral and 4.0 g pulmonary arteries; the rings were left for 90 minutes to equilibrate.

Assay [5] deals with T2, rat recombinant ETB receptor (CHO cells) (Rattus norvegicus, UniProt P21451).
T2 construct: expressed in transfected cells; host or cells: CHO cells
T2 sequence (P21451 27-442): T1 sequence (P21451 27-442)
Description: Inhibition of ET-1 stimulated arachidonic acid release (AAR-B). Type of assay: cell-based. The note with it: ET-1 0.3 nM. Here is the method: as §1, §2

The target in assay [6] is ETB (rabbit pulmonary artery) (Oryctolagus cuniculus, UniProt Q9N0W7).
Chain of ETB (rabbit pulmonary artery) (Q9N0W7 27-441): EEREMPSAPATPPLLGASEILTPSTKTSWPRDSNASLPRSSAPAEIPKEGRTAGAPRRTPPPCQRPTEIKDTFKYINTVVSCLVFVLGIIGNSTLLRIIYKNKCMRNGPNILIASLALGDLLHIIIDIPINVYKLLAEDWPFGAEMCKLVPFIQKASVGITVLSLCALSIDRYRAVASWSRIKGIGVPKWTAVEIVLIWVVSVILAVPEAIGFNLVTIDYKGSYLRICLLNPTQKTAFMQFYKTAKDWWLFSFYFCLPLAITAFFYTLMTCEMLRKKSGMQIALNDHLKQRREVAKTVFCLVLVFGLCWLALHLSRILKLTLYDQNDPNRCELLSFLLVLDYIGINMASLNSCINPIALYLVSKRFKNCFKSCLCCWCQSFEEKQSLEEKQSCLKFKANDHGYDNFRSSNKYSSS
Source text: as §3, §4

The target of assay [7] is T3, ETB (porcine pulmonary arteries) (Sus scrofa, UniProt P35463).
T3 construct: host or cells: isolated, endothelium-intact porcine pulmonary arteries
T3 sequence (P35463 27-443): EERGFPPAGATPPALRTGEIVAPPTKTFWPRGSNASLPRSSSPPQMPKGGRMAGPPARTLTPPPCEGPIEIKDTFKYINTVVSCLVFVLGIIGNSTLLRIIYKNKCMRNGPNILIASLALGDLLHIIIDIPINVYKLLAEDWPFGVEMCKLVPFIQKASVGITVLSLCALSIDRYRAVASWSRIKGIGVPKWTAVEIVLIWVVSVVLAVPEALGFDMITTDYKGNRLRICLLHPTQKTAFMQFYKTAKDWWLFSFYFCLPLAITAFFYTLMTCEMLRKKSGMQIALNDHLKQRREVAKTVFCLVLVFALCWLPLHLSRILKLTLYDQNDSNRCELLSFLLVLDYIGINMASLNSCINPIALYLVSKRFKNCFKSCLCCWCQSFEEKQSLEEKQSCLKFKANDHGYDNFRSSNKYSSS
As to conditions: isolated, endothelium-intact porcine pulmonary arteries; cited from earlier work.

As to `CC[C@H](C)[C@H](NC(=O)[C@H](CC(=O)O)NC(=O)[C@H](CC(C)C)NC(=O)[C@H](N)C1c2ccccc2CCc2ccccc21)C(=O)N[C@H](C(=O)N[C@@H](Cc1c[nH]c2ccccc12)C(=O)O)[C@@H](C)CC` [Example 2, D-Bhg-Leu-Asp-Ile-Ile-Trp] (HELM PEPTIDE1{[N[C@@H](C(=O)[*:2])C1c2ccccc2CCc2ccccc21].L.D.I.I.W}$$$$V2.0), the concentration for half-maximal inhibition (IC50) in assay [1] is 2100 nM; in assay [2] it was 100 nM; in assay [3] it was 450 nM; in assay [5], 9600 nM. In addition, in assay [4], the “pA2 Femoral” value was determined as 5.7.

Regarding `CC[C@H](C)[C@H](NC(=O)[C@H](CC(=O)O)NC(=O)[C@H](CCCN)NC(=O)[C@H](NC(C)=O)C1c2ccccc2CCc2ccccc21)C(=O)N[C@H](C(=O)N[C@@H](Cc1c[nH]c2ccccc12)C(=O)O)[C@@H](C)CC` [Example 7, Ac-D-Bhg-Orn-Asp-Ile-Ile-Trp] (HELM PEPTIDE1{[ac].[O=C([C@H](N[*:1])C1c2ccccc2CCc2ccccc21)[*:2]].[Orn].D.I.I.W}$$$$V2.0), the IC50 in assay [1] came out at 1500 nM; in assay [2], 37 nM; in assay [3] it was 22 nM. Moreover, in assay [4], the “pA2 Femoral” value worked out at 6.5.

With `CC[C@H](C)[C@H](NC(=O)[C@H](CC(=O)O)NC(=O)[C@H](CCC(=O)O)NC(=O)[C@H](NC(C)=O)C1c2ccccc2CCc2ccccc21)C(=O)N[C@H](C(=O)N[C@@H](Cc1c[nH]c2ccccc12)C(=O)O)[C@@H](C)CC` [Example 8, Ac-D-Bhg-Glu-Asp-Ile-Ile-Trp] (HELM PEPTIDE1{[ac].[O=C([C@H](N[*:1])C1c2ccccc2CCc2ccccc21)[*:2]].E.D.I.I.W}$$$$V2.0), the IC50 came out at 22 nM in assay [1], 7 nM in assay [2], 5.5 nM in assay [3] and 27 nM in assay [5]. Further, the Kb in assay [6] is 100 nM. In addition, the “pA2 Femoral” value in assay [4] is reported as 6.5.

In the case of ET[8-21,11,15-Ala], in assay [7], the “effect on vascular tone” value was “caused vasorelaxation”.

On to “ET[1,3,11,15-Ala]: linear ET analog, reported selective ETB agonist (ASASSLMDKEAVYFAHLDIIW; Endothelin-1; UniProt P05305 53-73, looked up, variant C1A C3A C11A C15A)”, for which the “effect on vascular tone” value in assay [7] is reported as “caused vasorelaxation”.

For the compound N-Acetyl-ET[10-21,11,15-Ala], the “effect on vascular tone” value in assay [7] is listed as “caused vasorelaxation”.

For ET[6-21, 1,3,11,15-Ala], the “effect on vascular tone” value in assay [7] is “caused vasorelaxation”.

`CC[C@H](C)[C@H](NC(=O)[C@H](CC(=O)O)NC(=O)[C@H](CC(C)C)NC(=O)[C@H](NC(C)=O)C1c2ccccc2C=Cc2ccccc21)C(=O)N[C@H](C(=O)N[C@@H](Cc1c[nH]c2ccccc12)C(=O)O)[C@@H](C)CC` [Example 6, Ac-D-Bheg-Leu-Asp-Ile-Ile-Trp] (HELM PEPTIDE1{[ac].[O=C([C@H](N[*:1])C1c2ccccc2C=Cc2ccccc21)[*:2]].L.D.I.I.W}$$$$V2.0): the IC50 stood at 19 nM in assay [1], 3 nM in assay [2], 5 nM in assay [3] and 17 nM in assay [5]. The compound also showed a Kb in assay [6] of 39.8 nM. The “pA2 Femoral” value in assay [4] is 6.8.
